From patent US5985879A, “Compounds useful for inhibition of farnesyl protein transferase” (Schering Corporation, priority 1997, dated 1999)

Columns and labels:
COS Cell = COS Cell IC50 (Cell-Based Assay); conditions: COS cells
Description: (§1) FPT IC50 (inhibition of farnesyl protein transferase, in vitro enzyme assay) and COS Cell IC50 (Cell-Based Assay) were determined following the assay procedures described in WO 95/10516, published Apr. 20, 1995. GGPT IC50 (inhibition of geranylgeranyl protein transferase, in vitro enzyme assay), Cell Mat Assay, and anti-tumor activity (in vivo anti-tumor studies) could be determined by the assay procedures described in WO 95/10516. The disclosure of WO 95/10516 is incorporated herein by reference thereto.

[1] = target: farnesyl protein transferase (K-ras) (Homo sapiens, UniProt P49354+P49356); assay: FPT IC50 (K-ras), inhibition of farnesyl protein transferase, in vitro enzyme assay; type: biochemical
Description: as §1

[2] = target: farnesyl protein transferase (H-ras) (Homo sapiens, UniProt P49354+P49356); assay: FPT IC50 (H-ras), inhibition of farnesyl protein transferase, in vitro enzyme assay; type: biochemical
Description: as §1

Human tumor cells = assay: Soft Agar Assay (anchorage-independent growth); type: cell-based; conditions: incubated 10-16 days at 37° C. under 5% CO2, MTT stain
Description: Anchorage-independent growth is a characteristic of tumorigenic cell lines. Human tumor cells are suspended in growth medium containing 0.3% agarose and an indicated concentration of a farnesyl transferase inhibitor. The solution is overlayed onto growth medium solidified with 0.6% agarose containing the same concentration of farnesyl transferase inhibitor as the top layer. After the top layer is solidified, plates are incubated for 10-16 days at 37° C. under 5% CO2 to allow colony outgrowth. After incubation, the colonies are stained by overlaying the agar with a solution of MTT (3-[4,5-dimethyl-thiazol-2-yl]-2,5-diphenyltetrazolium bromide, Thiazolyl blue) (1 mg/mL in PBS). Colonies can be counted and the IC50 's can be determined.

| IC50 [1] | IC50 [2] | IC50 (Human tumor cells) | Structure (SMILES) | IC50 (COS Cell) |
| --- | --- | --- | --- | --- |
| 91 nM | 16 nM |  | O=C(CC1CCN(c2nc3ccccc3o2)CC1)N1CCC([C@H]2c3ncc(Br)cc3CCc3cc(Cl)cc(Br)c32)CC1 [Formula 4.0] | 120 nM |
|  | 31 nM |  | O=C(CC1CCN(c2nnnn2-c2ccccc2)CC1)N1CCC([C@H]2c3ncc(Br)cc3CCc3cc(Cl)cc(Br)c32)CC1 [Formula 2.0] |  |
| 29 nM | 10.6 nM | > 500 nM | O=C(CC1CCN(c2ccccn2)CC1)N1CCC([C@H]2c3ncc(Br)cc3CCc3cc(Cl)cc(Br)c32)CC1 [Formula 5.0] | 39 nM |
| 40.9 nM | 4.6 nM | 80 nM | CC(=O)OC[C@H]1O[C@@H](N2CCC(CC(=O)N3CCC([C@H]4c5ncc(Br)cc5CCc5cc(Cl)cc(Br)c54)CC3)CC2)[C@H](OC(C)=O)[C@@H](OC(C)=O)[C@@H]1OC(C)=O [Formula 9.3] | 35 nM |
|  | 140 nM |  | O=C(CC1CCN(c2nccs2)CC1)N1CCC([C@H]2c3ncc(Br)cc3CCc3cc(Cl)cc(Br)c32)CC1 [Formula 3.0] |  |
|  | 20 nM |  | O=C(CC1CCN(c2ncccn2)CC1)N1CCC([C@H]2c3ncc(Br)cc3CCc3cc(Cl)cc(Br)c32)CC1 [Formula 6.0] | 68 nM |
